Measurements taken from PMC9581852, “Organic Cation Transporter-Mediated Accumulation of Quinolinium Salts in the LV Myocardium of Rodents” (Molecular Imaging and Biology, 2022).

What was measured:
Format in all cases: cell-based
[1] = target: T1, hOCT3 (organic cation transporter 3) (Homo sapiens, UniProt O75751); test: inhibition of […]FEtQ uptake in HEK293 cells stably expressing hOCT3
T1 construct: gene SLC22A3
T1 sequence (O75751 1-556): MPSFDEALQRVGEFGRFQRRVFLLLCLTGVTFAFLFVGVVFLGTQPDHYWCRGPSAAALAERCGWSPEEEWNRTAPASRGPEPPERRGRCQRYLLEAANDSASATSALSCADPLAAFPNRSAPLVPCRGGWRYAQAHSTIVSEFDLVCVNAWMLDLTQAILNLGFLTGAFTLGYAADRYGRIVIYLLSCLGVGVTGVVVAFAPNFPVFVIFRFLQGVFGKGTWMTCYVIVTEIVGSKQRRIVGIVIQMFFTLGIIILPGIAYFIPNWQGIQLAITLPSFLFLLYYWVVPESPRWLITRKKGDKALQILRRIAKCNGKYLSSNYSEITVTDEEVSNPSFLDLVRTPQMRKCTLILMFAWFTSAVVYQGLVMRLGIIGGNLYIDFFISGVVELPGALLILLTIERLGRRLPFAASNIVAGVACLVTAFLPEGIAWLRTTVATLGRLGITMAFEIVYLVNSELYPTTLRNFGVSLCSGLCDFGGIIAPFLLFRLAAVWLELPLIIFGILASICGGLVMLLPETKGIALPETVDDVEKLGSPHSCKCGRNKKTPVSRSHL

[2] = target: T2, hOCT2 (organic cation transporter 2) (Homo sapiens, UniProt O15244); test: in vivo PET/CT blocking of […]FEtQ uptake in HEK-hOCT2 xenografts in mice
T2 construct: gene SLC22A2
T2 sequence (O15244 1-555): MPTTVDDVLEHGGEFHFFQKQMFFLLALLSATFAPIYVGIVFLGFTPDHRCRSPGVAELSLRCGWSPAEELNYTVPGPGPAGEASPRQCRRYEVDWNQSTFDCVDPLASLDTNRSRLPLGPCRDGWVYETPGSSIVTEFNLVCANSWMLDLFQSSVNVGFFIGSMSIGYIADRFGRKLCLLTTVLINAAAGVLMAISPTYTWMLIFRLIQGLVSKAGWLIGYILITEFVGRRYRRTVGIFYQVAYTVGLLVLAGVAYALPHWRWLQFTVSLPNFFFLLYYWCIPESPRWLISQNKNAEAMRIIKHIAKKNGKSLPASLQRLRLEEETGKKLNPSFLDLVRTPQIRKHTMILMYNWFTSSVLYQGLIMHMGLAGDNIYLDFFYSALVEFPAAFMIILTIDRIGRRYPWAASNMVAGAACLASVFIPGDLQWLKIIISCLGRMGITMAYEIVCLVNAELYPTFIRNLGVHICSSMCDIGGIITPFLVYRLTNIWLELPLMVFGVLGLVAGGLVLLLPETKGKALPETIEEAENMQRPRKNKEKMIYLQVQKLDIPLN

[3] = target: T1, hOCT3 (organic cation transporter 3); test: radioligand saturation binding/uptake in intact HEK293-hOCT3 cells, empty-vector cells as non-specific binding

C[C@]12C[C@H](O)[C@H]3[C@@H](CCC4=CC(=O)CC[C@@]43C)[C@@H]1CC[C@@H]2C(=O)CO [corticosterone]
IC50 [1]: 0.05 to 0.5 µM

CCN1/C(=C/c2ccc3ccccc3[n+]2CC)C=Cc2ccccc21 [decynium 22]
% lower peak tumor uptake at 0.075 mg/kg [2]: 40 % lower peak tumor uptake at 0.075 mg/kg

FCC[n+]1cccc2ccccc21 [[18F]FEtQ]
Kd [3]: 214 ± 114 µM
